Measurements: US7705022B2, “IDO inhibitors and methods of use thereof” (Lankenau Institute for Medical Research, priority 2005, dated 2010)

Tests used:
IDO = conditions: cited from earlier work; for type of IDO inhibition: literature
human IDO = human IDO (Homo sapiens, UniProt P14902); assay: IDO inhibition assay (formation of kynurenine, read at 490 nm); type: biochemical; conditions: for Ki / Ki (IDO inhibition data): average of two or three trials, inhibitors tested at 200 and 400 μM, L-Trp 200 to 25 μM, N.I. = no inhibition detected
Sequence of human IDO (P14902 whole entry): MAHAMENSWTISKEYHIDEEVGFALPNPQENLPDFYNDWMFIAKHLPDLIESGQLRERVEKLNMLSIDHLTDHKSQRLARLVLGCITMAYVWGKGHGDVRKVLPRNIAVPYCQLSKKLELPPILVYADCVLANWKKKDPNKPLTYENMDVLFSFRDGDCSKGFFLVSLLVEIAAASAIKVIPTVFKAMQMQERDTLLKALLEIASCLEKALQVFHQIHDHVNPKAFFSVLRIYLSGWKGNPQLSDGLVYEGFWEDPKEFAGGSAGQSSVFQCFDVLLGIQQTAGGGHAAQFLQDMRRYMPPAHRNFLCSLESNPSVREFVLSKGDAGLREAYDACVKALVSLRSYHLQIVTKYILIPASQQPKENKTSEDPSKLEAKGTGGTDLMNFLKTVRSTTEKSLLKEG

CCCCc1cc2c(cn1)[nH]c1ccccc12 [3-butyl-β-carboline]
Ki (IDO; literature value): 3.3 µM
type of IDO inhibition (IDO): non-competitive

S=C(S)N1CCCC1 [pyrrolidine dithiocarbamate]
effect on IDO in words (IDO; literature report): inhibits IDO

CSC(=S)NCCc1ccccc1 [Compound 9, N-Phenethyl-S-methyl-dithiocarbamate]
IDO inhibitory activity in words (human IDO): significant inhibitory activity
Ki (human IDO): 62.4 µM

CSC(=O)NCc1c[nH]c2ccccc12 [Compound 21, Brassitin, reference compound]
IDO inhibitory activity in words (human IDO): complete loss in inhibitory activity
Ki (IDO inhibition data) (human IDO): N.I.

CNC(=S)NCc1c[nH]c2ccccc12 [Compound 19, N-[l-(Indol-3-yl)methyl]-N′-methyl-thiourea]
melting point: 148 to 150 °C
IDO inhibitory activity in words (human IDO): weaker or no inhibition
Ki (IDO inhibition data) (human IDO): N.I.^a

c1ccc2c(c1)[nH]c1cnccc12 [β-carboline]
type of IDO inhibition (IDO): non-competitive

N-(Adamant-2-yl)-S-methyl-dithiocarbamate [Compound 6]
Ki (human IDO): 180 µM
